Experimental data: ChEMBL document CHEMBL1649565, “Besifloxacin, a novel fluoroquinolone, has broad-spectrum in vitro activity against aerobic and anaerobic bacteria” (Antimicrob Agents Chemother, 2009)
Converted amounts (≈) assume the structure as drawn. The source made the active and inactive calls. The calls are words filed in the database; no cut-off is given here.

Legend:
Morganella morganii = experiment: Antibacterial activity against Morganella morganii by CLSI M7-A7 method; assay type: functional
Streptococcus sp. = experiment: Antibacterial activity against Lancefield Streptococcus sp. group F by CLSI M100-S18 method; assay type: functional
Haemophilus influenzae [1] = experiment: Antibacterial activity against non-ciprofloxacin-susceptible Haemophilus influenzae assessed as percent susceptible isolates by CLSI M7-A7 method; assay type: functional
Staphylococcus warneri [2] = experiment: Antibacterial activity against Staphylococcus warneri by CLSI M100-S18 method; assay type: functional
[3] = test system: Staphylococcus saprophyticus; experiment: Antibacterial activity against Staphylococcus saprophyticus by CLSI M100-S18 method; assay type: functional
Klebsiella pneumoniae [4] = experiment: Antibacterial activity against Klebsiella pneumoniae by CLSI M7-A7 method; assay type: functional
Streptococcus agalactiae = experiment: Antibacterial activity against Streptococcus agalactiae by CLSI M100-S18 method; assay type: functional
Moraxella catarrhalis = experiment: Antibacterial activity against Moraxella catarrhalis by CLSI M7-A7 method; assay type: functional
Streptococcus pneumoniae [5] = experiment: Antibacterial activity against levofloxacin susceptible Streptococcus pneumoniae assessed as percent susceptible isolates by CLSI M100-S18 method; assay type: functional
Pseudomonas aeruginosa [6] = experiment: Antibacterial activity against ciprofloxacin-susceptible Pseudomonas aeruginosa by CLSI M7-A7 method; assay type: functional
[7] = test system: Staphylococcus lugdunensis; experiment: Antibacterial activity against Staphylococcus lugdunensis assessed as percent susceptible isolates by CLSI M100-S18 method; assay type: functional
Streptococcus sanguinis = experiment: Antibacterial activity against Streptococcus sanguinis by CLSI M100-S18 method; assay type: functional
Klebsiella aerogenes = experiment: Antibacterial activity against Enterobacter aerogenes assessed as percent susceptible isolates by CLSI M7-A7 method; assay type: functional
[8] = test system: Staphylococcus saprophyticus; experiment: Antibacterial activity against Staphylococcus saprophyticus assessed as percent susceptible isolates by CLSI M100-S18 method; assay type: functional
[9] = test system: Staphylococcus haemolyticus; experiment: Antibacterial activity against Staphylococcus haemolyticus by CLSI M100-S18 method; assay type: functional
[10] = test system: Staphylococcus lugdunensis; experiment: Antibacterial activity against Staphylococcus lugdunensis by CLSI M100-S18 method; assay type: functional
Streptococcus oralis = experiment: Antibacterial activity against Streptococcus oralis by CLSI M100-S18 method; assay type: functional
[11] = test system: Streptococcus intermedius; experiment: Antibacterial activity against Streptococcus intermedius by CLSI M100-S18 method; assay type: functional
Staphylococcus aureus [12] = experiment: Antibacterial activity against non-ciprofloxacin-susceptible and methicillin-susceptible Staphylococcus aureus assessed as percent susceptible isolates by CLSI M100-S18 method; assay type: functional
[13] = test system: Staphylococcus epidermidis; experiment: Antibacterial activity against ciprofloxacin-susceptible and methicillin-resistant Staphylococcus epidermidis by CLSI M100-S18 method; assay type: functional
Streptococcus pneumoniae [14] = experiment: Antibacterial activity against non-levofloxacin susceptible Streptococcus pneumoniae assessed as percent susceptible isolates by CLSI M100-S18 method; assay type: functional
[15] = test system: Stenotrophomonas maltophilia; experiment: Antibacterial activity against levofloxacin-susceptible Stenotrophomonas maltophilia by CLSI M7-A7 method; assay type: functional
Proteus mirabilis = experiment: Antibacterial activity against Proteus mirabilis by CLSI M7-A7 method; assay type: functional
Streptococcus pneumoniae [16] = experiment: Antibacterial activity against non-levofloxacin susceptible Streptococcus pneumoniae by CLSI M100-S18 method; assay type: functional
Staphylococcus hominis = experiment: Antibacterial activity against Staphylococcus hominis assessed as percent susceptible isolates by CLSI M100-S18 method; assay type: functional
Legionella pneumophila = experiment: Antibacterial activity against Legionella pneumophila by CLSI M7-A7 method; assay type: functional
Streptococcus pyogenes = experiment: Antibacterial activity against Streptococcus pyogenes by CLSI M100-S18 method; assay type: functional
Streptococcus pneumoniae [17] = experiment: Antibacterial activity against levofloxacin-susceptible Streptococcus pneumoniae by CLSI M100-S18 method; assay type: functional
Enterococcus faecium = experiment: Antibacterial activity against vancomycin- resistant Enterococcus faecium by CLSI M100-S18 method; assay type: functional
Serratia marcescens [18] = experiment: Antibacterial activity against levofloxacin susceptible Serratia marcescens assessed as percent susceptible isolates by CLSI M7-A7 method; assay type: functional
Citrobacter freundii = experiment: Antibacterial activity against Citrobacter freundii by CLSI M7-A7 method; assay type: functional
[19] = test system: Staphylococcus epidermidis
Staphylococcus aureus [20] = experiment: Antibacterial activity against ciprofloxacin-susceptible and methicillin-resistant Staphylococcus aureus by CLSI M100-S18 method; assay type: functional
[21] = Antibacterial activity against Lancefield Streptococcus sp. 'group G' by CLSI M100-S18 method; assay type: functional
[22] = test system: Acinetobacter calcoaceticus; experiment: Antibacterial activity against Acinetobacter calcoaceticus by CLSI M7-A7 method; assay type: functional
Staphylococcus warneri [23] = experiment: Antibacterial activity against Staphylococcus warneri assessed as percent susceptible isolates by CLSI M100-S18 method; assay type: functional
Haemophilus influenzae [24] = experiment: Antibacterial activity against ciprofloxacin-susceptible Haemophilus influenzae assessed as percent susceptible isolates by CLSI M7-A7 method; assay type: functional
[25] = test system: Stenotrophomonas maltophilia; experiment: Antibacterial activity against non-levofloxacin susceptible Stenotrophomonas maltophilia by CLSI M7-A7 method; assay type: functional
Proteus vulgaris = experiment: Antibacterial activity against Proteus vulgaris by CLSI M7-A7 method; assay type: functional
Klebsiella pneumoniae [26] = experiment: Antibacterial activity against Klebsiella pneumoniae assessed as percent susceptible isolates by CLSI M7-A7 method; assay type: functional
Acinetobacter lwoffii = experiment: Antibacterial activity against Acinetobacter lwoffii by CLSI M7-A7 method; assay type: functional
Streptococcus anginosus = experiment: Antibacterial activity against Streptococcus anginosus by CLSI M100-S18 method; assay type: functional
Serratia marcescens [27] = experiment: Antibacterial activity against Serratia marcescens by CLSI M7-A7 method; assay type: functional
Citrobacter koseri = experiment: Antibacterial activity against Citrobacter koseri by CLSI M7-A7 method; assay type: functional
Pseudomonas aeruginosa [28] = experiment: Antibacterial activity against non-ciprofloxacin-susceptible Pseudomonas aeruginosa by CLSI M7-A7 method; assay type: functional
Enterobacter cloacae = experiment: Antibacterial activity against Enterobacter cloacae by CLSI M7-A7 method; assay type: functional
[29] = test system: Staphylococcus epidermidis; experiment: Antibacterial activity against non-ciprofloxacin-susceptible and methicillin-susceptible Staphylococcus epidermidis assessed as percent susceptible isolates by CLSI M100-S18 method; assay type: functional

NC[C@H]1O[C@H](O[C@H]2[C@H](O)[C@@H](O[C@H]3O[C@H](CO)[C@@H](O)[C@H](N)[C@H]3O)[C@H](N)C[C@@H]2N)[C@H](N)C[C@@H]1O [TOBRAMYCIN]
MIC50 (Morganella morganii): 1 µg/mL (≈ 2.14 µM)
MIC90 (Morganella morganii): 4 µg/mL (≈ 8.56 µM)
MIC50 (Streptococcus sp.): 0.06 µg/mL (≈ 0.128 µM)
MIC90 (Streptococcus sp.): > 8 µg/mL
Activity (Haemophilus influenzae [1]): inactive
MIC50 (Staphylococcus warneri [2]): 0.06 µg/mL (≈ 0.128 µM)
MIC90 (Staphylococcus warneri [2]): 8 µg/mL (≈ 17.1 µM)
MIC50 [3]: 0.015 µg/mL (≈ 0.0321 µM)
MIC90 [3]: 0.06 µg/mL (≈ 0.128 µM)
MIC50 (Klebsiella pneumoniae [4]): 0.25 µg/mL (≈ 0.535 µM)
MIC90 (Klebsiella pneumoniae [4]): 1 µg/mL (≈ 2.14 µM)
MIC50 (Streptococcus agalactiae): 0.06 µg/mL (≈ 0.128 µM)
MIC90 (Streptococcus agalactiae): > 8 µg/mL
MIC50 (Moraxella catarrhalis): 0.03 µg/mL (≈ 0.0642 µM)
MIC90 (Moraxella catarrhalis): 0.03 µg/mL (≈ 0.0642 µM)
Activity (Streptococcus pneumoniae [5]): inactive
MIC50 (Pseudomonas aeruginosa [6]): 2 µg/mL (≈ 4.28 µM)
MIC90 (Pseudomonas aeruginosa [6]): 2 µg/mL (≈ 4.28 µM)
Activity [7]: 46.7%
MIC50 (Streptococcus sanguinis): 0.06 µg/mL (≈ 0.128 µM)
MIC90 (Streptococcus sanguinis): > 8 µg/mL
Activity (Klebsiella aerogenes): 100%
Activity [8]: 54.5%
MIC50 [9]: 2 µg/mL (≈ 4.28 µM)
MIC90 [9]: 32 µg/mL (≈ 68.4 µM)
MIC50 [10]: 0.12 µg/mL (≈ 0.257 µM)
MIC90 [10]: 32 µg/mL (≈ 68.4 µM)
MIC50 (Streptococcus oralis): 0.06 µg/mL (≈ 0.128 µM)
MIC90 (Streptococcus oralis): > 8 µg/mL
MIC50 [11]: 0.06 µg/mL (≈ 0.128 µM)
MIC90 [11]: > 8 µg/mL
Activity (Staphylococcus aureus [12]): 27.3%
MIC50 [13]: 0.03 µg/mL (≈ 0.0642 µM)
Activity (Streptococcus pneumoniae [14]): inactive
MIC [15]: 2 µg/mL (≈ 4.28 µM)
MIC50 (Proteus mirabilis): 1 µg/mL (≈ 2.14 µM)
MIC90 (Proteus mirabilis): 4 µg/mL (≈ 8.56 µM)
MIC50 (Streptococcus pneumoniae [16]): 8 µg/mL (≈ 17.1 µM)
MIC90 (Streptococcus pneumoniae [16]): 16 µg/mL (≈ 34.2 µM)
Activity (Staphylococcus hominis): 16%
MIC50 (Legionella pneumophila): 0.12 µg/mL (≈ 0.257 µM)
MIC90 (Legionella pneumophila): 1 µg/mL (≈ 2.14 µM)
MIC50 (Streptococcus pyogenes): 16 µg/mL (≈ 34.2 µM)
MIC90 (Streptococcus pyogenes): 16 µg/mL (≈ 34.2 µM)
MIC50 (Streptococcus pneumoniae [17]): 8 µg/mL (≈ 17.1 µM)
MIC90 (Streptococcus pneumoniae [17]): 16 µg/mL (≈ 34.2 µM)
MIC50 (Enterococcus faecium): > 128 µg/mL
MIC90 (Enterococcus faecium): > 128 µg/mL
Activity (Serratia marcescens [18]): 100%
MIC50 (Citrobacter freundii): 0.25 µg/mL (≈ 0.535 µM)
MIC90 (Citrobacter freundii): 0.5 µg/mL (≈ 1.07 µM)
MIC90 [19]: inactive
MIC50 (Staphylococcus aureus [20]): 0.5 µg/mL (≈ 1.07 µM)
MIC90 (Staphylococcus aureus [20]): 1 µg/mL (≈ 2.14 µM)
MIC50 [21]: 0.06 µg/mL (≈ 0.128 µM)
MIC90 [21]: > 8 µg/mL
MIC50 [22]: 0.25 µg/mL (≈ 0.535 µM)
MIC90 [22]: 1 µg/mL (≈ 2.14 µM)
Activity (Staphylococcus warneri [23]): 34%
Activity (Haemophilus influenzae [24]): inactive
MIC [25]: > 8 µg/mL
MIC50 (Proteus vulgaris): 1 µg/mL (≈ 2.14 µM)
MIC90 (Proteus vulgaris): 4 µg/mL (≈ 8.56 µM)
Activity (Klebsiella pneumoniae [26]): 100%
MIC50 (Acinetobacter lwoffii): 0.06 µg/mL (≈ 0.128 µM)
MIC90 (Acinetobacter lwoffii): 0.5 µg/mL (≈ 1.07 µM)
MIC50 (Streptococcus anginosus): 16 µg/mL (≈ 34.2 µM)
MIC90 (Streptococcus anginosus): 32 µg/mL (≈ 68.4 µM)
MIC50 (Serratia marcescens [27]): 0.5 µg/mL (≈ 1.07 µM)
MIC90 (Serratia marcescens [27]): 1 µg/mL (≈ 2.14 µM)
MIC50 (Citrobacter koseri): 0.5 µg/mL (≈ 1.07 µM)
MIC90 (Citrobacter koseri): 1 µg/mL (≈ 2.14 µM)
MIC50 (Pseudomonas aeruginosa [28]): 8 µg/mL (≈ 17.1 µM)
MIC90 (Pseudomonas aeruginosa [28]): > 8 µg/mL
MIC50 (Enterobacter cloacae): 0.25 µg/mL (≈ 0.535 µM)
MIC90 (Enterobacter cloacae): 1 µg/mL (≈ 2.14 µM)
Activity [29]: 16.7%
